# Data taken from patent publication EP1166644A1, “Enzymatic biodegradation of halogenated compounds” (priority 2000, dated 2002).
# Tested on: baker's yeast
# Assay: Bioconversion (biodegradation) assay with baker's yeast
# Type: cell-based, Saccharomyces caerevisae (baker's yeast)
# Experimental: Biodegradation assays were carried out according to the following steps: • Step 1. Culture of microorganisms: The microorganisms studied were allowed to grow on a defined medium, in order to increase biomass and develop possible enzymatic activity. • Step 2. Bioconversion assay: The desired amount of 3-MCPD was added to the reactor, and samples were withdrawn at different reaction time to follow the kinetics of biodegradation. • Step 3. Centrifugation: Samples withdrawn from the mixture were centrifuged, the pellet was discarded and the supernatant was used for further treatment and analysis. • Step 4. Extraction of 3-MCPD: 3-MCPD was extracted from the supernatant using Extrelut columns or the Accelerated Solvent Extractor method, and partitioned into ethyl acetate. • Step 5. Preparation of samples for analysis: The organic phase was concentrated with a rotary evaporator, and transferred to a vial, containing an internal standard (3-monochloro-1-propanol (3-MCP) or 3-MCPD-d5). • Step 6. Analysis: Final detection and monitoring of substrate was accomplished by gas chromatography techniques (GC or GC-MS).
# Conditioning of baker's yeast: 60g active dry baker's yeast was added to 300 g distilled water under magnetic stirring for 20 min at room temperature. The yeast cream was then centrifuged at 5000 rpm for 15 min, at 4°C (Beckman Model J2-21M Centrifuge) and supernatant was discarded. The pellet was resuspended in equivalent amount (225ml) of distilled water. The obtained yeast cream solution (pH 5.8) was then used for bioconversion assays.
# Bioconversion assay: 150 g of the yeast cream solution obtained as described above was placed in a 200 ml reactor vessel equipped with an electrode and a magnetic stirrer (500 rpm). The flask was kept at 28°C using an oil bath equipped with a thermostat (Heidolph MR 3003), and pH was adjusted to the desired pH condition (pH 6.2, pH 7.0, or pH 8.2) with 2M NaOH solution.
# […] The pH was automatically maintained throughout the reaction with regular adjunction of 2M NaOH (Metrohm 691 pH-Meter, equipped with Metrohm Impulsomat 614 and Dosimat 665).
# Aliquots of 6 ml were withdrawn from the reaction mixture at different incubation times and centrifuged at 3000 rpm, during 4 min, at 25°C (Beckman Model TJ6 Centrifuge). The pellet was discarded, and the supernatant absorbed onto an Extrelut 3 column or hydromatrix column (placed in the Accelerated Solvent Extractor). 3-MCPD was then partitioned into ethyl acetate, volume was reduced to 2 ml by rotary evaporation, and transferred to a 10 ml graduated tube. 1ml of the internal standard (3-MCP or 3-MCPD-d5) was added to the vial and made up to volume with ethyl acetate. Finally, the extract was dried over anhydrous sodium sulfate, and analyzed for 3-MCPD content by gas chromatography (GC or GC-MS).
# The study of 3-MCPD biodegradation by baker's yeast was made by varying different parameters and measuring their influence on the yield and rate of 3-MCPD degradation. The effect of the following parameters were studied: • pH 6.2, 7.0 and 8.2 • presence of glucose in the reaction mixture • substrate stereospecificity: (R)-and (S)-enantiomers • substrate concentration: 800 ppb and 3000 ppm
# The results of the biodegradation assays are reported as a percentage of conversion of 3-MCPD as function of reaction time.
# Final conversion values were referred to 48h reaction time in order to compare the different biodegradation assays performed. Comparison of bioconversions after 48 h reaction time has been chosen in respect of the enzymatic nature of the reaction studied (many non-enzymatic reactions could occur in a longer time frame).
# A control vial (reaction medium with substrate, but without microorganism) was run alongside the reaction. This control permitted the subtraction of the non-enzymatic conversion of 3-MCPD under the experimental conditions tested. […]
# [1] = 3000 ppm, pH 8.2, 28°C, without glucose
# [2] = 800 ppb, pH 8.2, 28°C, without glucose
# [3] = 3000 ppm, pH 6.2, 28°C, without glucose
# [4] = 3000 ppm, pH 7.0, 28°C, without glucose
SMILES,"Biodegradation of 3-MCPD with baker's yeast, After 24 h [1] [%]","Biodegradation of 3-MCPD with baker's yeast, After 48 h [1] [%]","Biodegradation of 3-MCPD with baker's yeast, After 24 h [2] [%]","Biodegradation of 3-MCPD with baker's yeast, After 24 h (800 ppb, pH 8.2, 28°C, without glucose, listed as racemic 3-MCPD)","Biodegradation of 3-MCPD with baker's yeast, After 48 h [2] [%]","highest conversion (2000 ppm, pH 8.2, in the presence of glucose, after 24h reaction) [%]","Biodegradation of 3-MCPD with baker's yeast, After 24 h [3] [%]","Biodegradation of 3-MCPD with baker's yeast, After 48 h [3] [%]","Biodegradation of 3-MCPD with baker's yeast, After 24 h [4] [%]","Biodegradation of 3-MCPD with baker's yeast, After 48 h [4] [%]","Biodegradation of 3-MCPD with baker's yeast, After 48 h (3000 ppm, pH 8.2, 28°C, without glucose, listed as 3-MCPD) [%]","Biodegradation of 3-MCPD with baker's yeast, After 48 h (3000 ppm, pH 8.2, 28°C, without glucose, listed as racemic 3-MCPD)","Biodegradation of 3-MCPD with baker's yeast, After 24 h (3000 ppm, pH 8.2, + glucose) [%]","Biodegradation of 3-MCPD with baker's yeast, After 48 h (3000 ppm, pH 8.2, + glucose) [%]"
"OC[C@@H](O)CCl [(R)-3-MCPD, (R)-(-)-3-monochloro-1,2-propanediol]",20,60,,,,,,,,,,,,
"OCC(O)CCl (racemic) [(R,S)-3-MCPD, 3-Monochloro-1,2-propanediol]",26,45,50,about 50%,70,60,8,12,20,35,45,about 50%,60,68
"OC[C@H](O)CCl [(S)-3-MCPD, (S)-(+)-3-monochloro-1,2-propanediol]",55,85,,,,,,,,,,,,
